# Tests used:
# [1] = test system: pression artérielle et membrane nictitante; test: Adrenolytic activity in the anaesthetised cat; format: in vivo; settings: chat
# Description: (§1) Les propriétés adrénolytiques ont été recherchées chez le chat et le chien anesthésiés vis-à-vis de la pression artérielle et de la membrane nictitante (chat).
# [2] = test system: excrétion urinaire provoquée par l'adrénaline; settings: rat; for augmentation de l'excrétion urinaire provoquée par l'adrénaline: 100 mg par voie orale; for absorption par voie orale: in vivo, po
# [3] = Acute toxicity, intravenous route; format: in vivo; settings: mouse, in vivo, iv; souris, voie intraveineuse; read-out: DL 50 (the source's name)
# Description: (§2) Par voie injectable les composés de formule I ont été administrés jusqu'à 100 mg/kg, sans provoquer de mortalité chez le rat. A titre d'exemple, on précisera que la DL 50 par voie intraveineuse chez la souris est de 330 mg/kg pour le tétrahydroalstonate de sodium. La toxicité du tétrahydroalstonate de créatinol chez la souris,par voie intraveineuse calculée selon la méthode de Kärber est de 450 mg/kg.
# [4] = test system: pression artérielle; test: Adrenolytic activity and arterial pressure in the anaesthetised dog; format: in vivo; settings: chien, 0,1 à 10 mg/kg par voie intraveineuse
# Description: as §1
# Cette activité ne s'accompagne pas de diminution de la force de contraction cardiaque. L'inversion de l'hypertension à l'adrénaline commence dès la dose de 0,05 mg/kg.
# [5] = test system: agrégation à l'ADP, au collagène et à l'ADP + adrénaline; test: In vitro aggregation induced by ADP, collagen and ADP + adrenaline; format: cell-based
# Description: Les tétrahydroalstonates de sodium, de créatinol et d'imidazole sont actifs in vitro vis-à-vis de l'agrégation à l'ADP, au collagène et à l'ADP + adrénaline; les concentrations actives.variant de 1.10^-3M à 1.10^-5M selon les tests et les composés particuliers répondant à la formule générale I.
# [6] = Solubility
# [7] = test system: souris; test: Acute toxicity, intravenous route; format: in vivo; settings: voie intraveineuse, méthode de Kärber
# Description: as §2
Compound,dose pour laquelle l'adrénolyse est parfaitement nette [1],augmentation de l'excrétion urinaire provoquée par l'adrénaline [2],absorption par voie orale [2],pression artérielle [4],agrégation à l'ADP [5],agrégation à l'ADP + adrénaline [5],agrégation au collagène [5],activité adrénolytique comparée à la raubasine et à la tétrahydroalstonine ([1]; voie injectable),other results
"COC(=O)C1=COC(C)C2CN3CCc4c([nH]c5ccccc45)C3CC12 (stereo not drawn) [raubasine, reference compound]",2 mg/kg,–,–,–,–,–,–,–,–
"CC1OC=C(C(=O)O)C2CC3c4[nH]c5ccccc5c4CCN3CC12 (stereo not drawn) [tétrahydroalstonate de sodium, Tétrahydroalstonate de sodium]",–,réduisent l'augmentation de l'excrétion urinaire provoquée par l'adrénaline,bonne absorption par voie orale,diminution progressive de la pression artérielle proportionnelle à la dose,actifs,actifs,actifs,très nettement supérieure à celle de la raubasine et de la tétrahydroalstonine,"LD50 [3]: 330 mg/kg; solubility ([6]; 95% ethanol, organic solvent or mixture): 70 mg/mL; solubility ([6]; chloroform, organic solvent or mixture): 35 mg/mL; solubility ([6]; water): 90 mg/mL"
"COC(=O)C1=COC(C)C2CN3CCc4c([nH]c5ccccc45)C3CC12 (stereo not drawn) [tétrahydroalstonine, reference compound]","0,5 mg/kg",–,–,–,–,–,–,–,–
Tétrahydroalstonate de créatinol,–,réduisent l'augmentation de l'excrétion urinaire provoquée par l'adrénaline,bonne absorption par voie orale,diminution progressive de la pression artérielle proportionnelle à la dose,actifs,actifs,actifs,très nettement supérieure à celle de la raubasine et de la tétrahydroalstonine,"toxicité [7]: 450 mg/kg; dose à laquelle les composés agissent (activité adrénolytique) ([1]; voie injectable): 0,1 mg/kg; Solubilités : éthanol à 95 (95% ethanol): 5%; Solubilités : eau (water): 5%"
tétrahydroalstonate d'imidazole,–,–,–,–,actifs,actifs,actifs,–,–

# Source: patent EP0017525A1, “Derivatives of tetrahydroalstonine, their preparation and their application as medicaments” (PIERRE FABRE S.A., priority 1979, dated 1980)
